Experiments:
[1] = Sensory evaluation of sweetness intensity in sucralose solution (Experimental Examples 23-24); conditions: for sweetness intensity: average score; for concentration at which a sweetness-enhancing effect was confirmed: sucralose solution, added alone, 3.0 points or more
Experimental: A negative control sucralose solution (0.0140 wt % sucralose solution) was prepared by dissolving sucralose in filtered water.
(§1) A sensory evaluation of sweetness intensity was performed for each sample by a panel of four experts according to the following evaluation criteria.
Sweetness intensity was evaluated by 0.0 to 10.0 point based on the following reference samples (negative control (hereinafter referred to as NC) (0.0 point); reference 1 (hereinafter referred to as R1) (3.0 points), reference 2 (hereinafter referred to as R2) (5.0 points); reference 3 (hereinafter referred to as R3) (10.0 points)). The average score (rounded to two decimal places) of each expert panelist was calculated. An average score of 3.0 points or more was considered to be functional. • NC (0.0 point): 0.0140 wt % sucralose solution (solvent: filtered water) • R1 (3.0 points): 0.0164 wt % sucralose solution (solvent: filtered water) • R2 (5.0 points): 0.0180 wt % sucralose solution (solvent: filtered water) • R3 (10.0 points): 0.0220 wt % sucralose solution (solvent: filtered water)
A sensory evaluation of sweetness intensity was performed for each sample by a panel of four experts according to the same evaluation criteria as in Experimental Example 23.

[2] = Sensory evaluation of sweetness intensity in aspartame solution, four reference samples (Experimental Example 22)
Experimental: A negative control aspartame solution (0.063 wt % aspartame solution) was prepared by dissolving aspartame in filtered water.
as §1
(§2) Sweetness intensity was evaluated by 0.0 to 10.0 point based on the following reference samples (negative control (hereinafter referred to as NC) (0.0 point); reference 1 (hereinafter referred to as R1) (3.2 points), reference 2 (hereinafter referred to as R2) (5.0 points); reference 3 (hereinafter referred to as R3) (10.0 points)). The average score (rounded to two decimal places) of each expert panelist was calculated. An average score of 3.0 points or more was considered to be functional. • NC (0.0 point): 0.063 wt % aspartame solution (solvent: filtered water) • R1 (3.2 points): 0.063 wt % aspartame solution (solvent: filtered water)+decanoic acid (10 ppb) • R2 (5.0 points): 0.066 wt % aspartame solution (solvent: filtered water) • R3 (10.0 points): 0.069 wt % aspartame solution (solvent: filtered water)

[3] = Sensory evaluation of sweetness intensity in RebM solution (Experimental Examples 20-21)
Experimental: A negative control RebM solution (0.063 wt % RebM solution) was prepared by dissolving RebM in filtered water.
as §1
as §2, with “to 10.0 points based on” for “to 10.0 point based on”, “as R1) (3.0 points), reference” for “as R1) (3.2 points), reference”, “wt % RebM solution (solvent:” for “wt % aspartame solution (solvent:”, “• R1 (3.0 points): 0.063” for “• R1 (3.2 points): 0.063”, “(solvent: filtered water)+dodecanoic acid (1” for “(solvent: filtered water)+decanoic acid (10”, “water)+dodecanoic acid (1 ppb) •” for “water)+decanoic acid (10 ppb) •”
A sensory evaluation of sweetness intensity was performed for each sample by a panel of four experts according to the same evaluation criteria as in Experimental Example 20.

[4] = Sensory evaluation of sweetness intensity in RebA solution, four reference samples (Experimental Examples 17-19); conditions: for concentration at which a sweetness-enhancing effect was confirmed: added alone, 3.0 points or more
Experimental: A negative control RebA solution (0.073 wt % RebA solution) was prepared by dissolving RebA in filtered water.
as §1
Sweetness intensity was evaluated by 0.0 to 10.0 points based on the following reference samples (negative control (hereinafter referred to as NC) (0.0 point); reference 1 (hereinafter referred to as R1) (3.2 points), reference 2 (hereinafter referred to as R2) (5.0 points); reference 3 (hereinafter referred to as R3) (10.0 points)). The average score (rounded to two decimal places) of each expert panelist was calculated. An average score of 3.0 points or more was considered to be functional. • NC (0.0 point): 0.073 wt % RebA solution (solvent: filtered water) • R1 (3.2 points): 0.073 wt % RebA solution (solvent: filtered water)+decanoic acid (10 ppb) • R2 (5.0 points): 0.077 wt % RebA solution (solvent: filtered water) • R3 (10.0 points): 0.080 wt % RebA solution (solvent: filtered water)
A sensory evaluation of sweetness intensity was performed for each sample by a panel of four experts according to the same evaluation criteria as in Experimental Example 17.

[5] = added alone at 0.001 ppb to 0.0140 wt % sucralose solution
[6] = added alone at 0.01 ppb to 0.0140 wt % sucralose solution
[7] = added alone at 0.1 ppb to 0.0140 wt % sucralose solution
[8] = added alone at 1 ppb to 0.0140 wt % sucralose solution
[9] = added alone at 10 ppb to 0.0140 wt % sucralose solution
[10] = added alone at 100 ppb to 0.0140 wt % sucralose solution
[11] = added alone at 1000 ppb to 0.0140 wt % sucralose solution
[12] = added alone at 10000 ppb to 0.0140 wt % sucralose solution

## CCCCCCCC(=O)O [octanoic acid]
[1]; [5]
  sweetness intensity: 0.5 points
[1]; [6]
  sweetness intensity: 1.3 points
[1]; [7]
  sweetness intensity: 1.8 points
[1]; [8]
  sweetness intensity: 2.3 points
[1]; [9]
  sweetness intensity: 2.9 points
[1]; [10]
  sweetness intensity: 3.3 points
[1]; [11]
  sweetness intensity: 4.0 points
[1]; [12]
  sweetness intensity: 4.5 points
[2]; acid added alone at 0.001 ppb
  sweetness intensity: 0.6 points
[2]; acid added alone at 0.01 ppb
  sweetness intensity: 1.4 points
[2]; acid added alone at 0.1 ppb
  sweetness intensity: 2.2 points
[2]; acid added alone at 1 ppb
  sweetness intensity: 2.9 points
[2]; acid added alone at 10 ppb
  sweetness intensity: 3.4 points
[2]; acid added alone at 100 ppb
  sweetness intensity: 3.9 points
[2]; acid added alone at 1000 ppb
  sweetness intensity: 4.3 points
[2]; acid added alone at 10000 ppb
  sweetness intensity: 4.6 points
[2]; added alone, 3.0 points or more
  concentration at which a sweetness-enhancing effect was confirmed: ≥ 10 ppb
[3]; acid added alone at 0.001 ppb
  sweetness intensity: 1.1 points
[3]; acid added alone at 0.01 ppb
  sweetness intensity: 1.8 points
[3]; acid added alone at 0.1 ppb
  sweetness intensity: 2.7 points
[3]; acid added alone at 1 ppb
  sweetness intensity: 3.3 points
[3]; acid added alone at 10 ppb
  sweetness intensity: 4.3 points
[3]; acid added alone at 100 ppb
  sweetness intensity: 4.3 points
[3]; acid added alone at 1000 ppb
  sweetness intensity: 4.4 points
[3]; acid added alone at 10000 ppb
  sweetness intensity: 4.3 points
[4]; acid added alone at 0.001 ppb
  sweetness intensity: 0.3 points
[4]; acid added alone at 0.01 ppb
  sweetness intensity: 0.4 points
[4]; acid added alone at 0.1 ppb
  sweetness intensity: 0.9 points
[4]; acid added alone at 1 ppb
  sweetness intensity: 1.3 points
[4]; acid added alone at 10 ppb
  sweetness intensity: 2.0 points
[4]; acid added alone at 100 ppb
  sweetness intensity: 2.6 points
[4]; acid added alone at 1000 ppb
  sweetness intensity: 3.7 points
[4]; acid added alone at 10000 ppb
  sweetness intensity: 4.0 points
[4]
  concentration at which a sweetness-enhancing effect was confirmed: ≥ 1000 ppb

## CCCCCCCCC(=O)O [nonanoic acid]
[1]; [5]
  sweetness intensity: 1.3 points
[1]; [6]
  sweetness intensity: 1.8 points
[1]; [7]
  sweetness intensity: 2.4 points
[1]; [8]
  sweetness intensity: 3.0 points
[1]; [9]
  sweetness intensity: 3.5 points
[1]; [10]
  sweetness intensity: 3.9 points
[1]; [11]
  sweetness intensity: 4.3 points
[1]; [12]
  sweetness intensity: 4.2 points
[1]
  concentration at which a sweetness-enhancing effect was confirmed: ≥ 1 ppb
[2]; acid added alone at 0.001 ppb
  sweetness intensity: 0.8 points
[2]; acid added alone at 0.01 ppb
  sweetness intensity: 2.0 points
[2]; acid added alone at 0.1 ppb
  sweetness intensity: 2.7 points
[2]; acid added alone at 1 ppb
  sweetness intensity: 3.4 points
[2]; acid added alone at 10 ppb
  sweetness intensity: 4.5 points
[2]; acid added alone at 100 ppb
  sweetness intensity: 4.9 points
[2]; acid added alone at 1000 ppb
  sweetness intensity: 5.4 points
[2]; acid added alone at 10000 ppb
  sweetness intensity: 5.9 points
[3]; acid added alone at 0.001 ppb
  sweetness intensity: 0.9 points
[3]; acid added alone at 0.01 ppb
  sweetness intensity: 1.4 points
[3]; acid added alone at 0.1 ppb
  sweetness intensity: 2.1 points
[3]; acid added alone at 1 ppb
  sweetness intensity: 2.8 points
[3]; acid added alone at 10 ppb
  sweetness intensity: 3.3 points
[3]; acid added alone at 100 ppb
  sweetness intensity: 4.1 points
[3]; acid added alone at 1000 ppb
  sweetness intensity: 4.8 points
[3]; acid added alone at 10000 ppb
  sweetness intensity: 4.8 points
[4]; acid added alone at 0.001 ppb
  sweetness intensity: 0.7 points
[4]; acid added alone at 0.01 ppb
  sweetness intensity: 1.0 points
[4]; acid added alone at 0.1 ppb
  sweetness intensity: 1.8 points
[4]; acid added alone at 1 ppb
  sweetness intensity: 2.8 points
[4]; acid added alone at 10 ppb
  sweetness intensity: 3.3 points
[4]; acid added alone at 100 ppb
  sweetness intensity: 4.0 points
[4]; acid added alone at 1000 ppb
  sweetness intensity: 4.8 points
[4]; acid added alone at 10000 ppb
  sweetness intensity: 4.4 points
[4]
  concentration at which a sweetness-enhancing effect was confirmed: ≥ 10 ppb

## CCCCCCCCCCCC(=O)O [dodecanoic acid]
[1]; [5]
  sweetness intensity: 1.0 points
[1]; [6]
  sweetness intensity: 1.6 points
[1]; [7]
  sweetness intensity: 2.0 points
[1]; [8]
  sweetness intensity: 2.5 points
[1]; [9]
  sweetness intensity: 3.0 points
[1]; [10]
  sweetness intensity: 3.5 points
[1]; [11]
  sweetness intensity: 3.9 points
[1]; [12]
  sweetness intensity: 3.7 points
[1]
  concentration at which a sweetness-enhancing effect was confirmed: ≥ 10 ppb
[2]; acid added alone at 0.001 ppb
  sweetness intensity: 1.7 points
[2]; acid added alone at 0.01 ppb
  sweetness intensity: 2.2 points
[2]; acid added alone at 0.1 ppb
  sweetness intensity: 2.7 points
[2]; acid added alone at 1 ppb
  sweetness intensity: 3.3 points
[2]; acid added alone at 10 ppb
  sweetness intensity: 4.2 points
[2]; acid added alone at 100 ppb
  sweetness intensity: 4.9 points
[2]; acid added alone at 1000 ppb
  sweetness intensity: 5.5 points
[2]; acid added alone at 10000 ppb
  sweetness intensity: 6.1 points
[3]; acid added alone at 0.001 ppb
  sweetness intensity: 0.8 points
[3]; acid added alone at 0.01 ppb
  sweetness intensity: 1.7 points
[3]; acid added alone at 0.1 ppb
  sweetness intensity: 2.5 points
[3]; acid added alone at 1 ppb
  sweetness intensity: 3.0 points
[3]; acid added alone at 10 ppb
  sweetness intensity: 5.0 points
[3]; acid added alone at 100 ppb
  sweetness intensity: 4.6 points
[3]; acid added alone at 1000 ppb
  sweetness intensity: 4.7 points
[3]; acid added alone at 10000 ppb
  sweetness intensity: 4.8 points
[4]; acid added alone at 0.001 ppb
  sweetness intensity: 0.6 points
[4]; acid added alone at 0.01 ppb
  sweetness intensity: 1.3 points
[4]; acid added alone at 0.1 ppb
  sweetness intensity: 2.3 points
[4]; acid added alone at 1 ppb
  sweetness intensity: 4.2 points
[4]; acid added alone at 10 ppb
  sweetness intensity: 5.0 points
[4]; acid added alone at 100 ppb
  sweetness intensity: 5.7 points
[4]; acid added alone at 1000 ppb
  sweetness intensity: 6.0 points
[4]; acid added alone at 10000 ppb
  sweetness intensity: 6.0 points
[4]
  concentration at which a sweetness-enhancing effect was confirmed: ≥ 1 ppb

## CCCCCCCCCCC(=O)O [undecanoic acid]
[1]; [5]
  sweetness intensity: 0.9 points
[1]; [6]
  sweetness intensity: 1.3 points
[1]; [7]
  sweetness intensity: 1.7 points
[1]; [8]
  sweetness intensity: 2.1 points
[1]; [9]
  sweetness intensity: 2.8 points
[1]; [10]
  sweetness intensity: 3.1 points
[1]; [11]
  sweetness intensity: 3.4 points
[1]; [12]
  sweetness intensity: 3.2 points
[2]; acid added alone at 0.001 ppb
  sweetness intensity: 1.3 points
[2]; acid added alone at 0.01 ppb
  sweetness intensity: 2.1 points
[2]; acid added alone at 0.1 ppb
  sweetness intensity: 2.8 points
[2]; acid added alone at 1 ppb
  sweetness intensity: 3.2 points
[2]; acid added alone at 10 ppb
  sweetness intensity: 3.8 points
[2]; acid added alone at 100 ppb
  sweetness intensity: 4.1 points
[2]; acid added alone at 1000 ppb
  sweetness intensity: 4.7 points
[2]; acid added alone at 10000 ppb
  sweetness intensity: 5.5 points
[3]; acid added alone at 0.001 ppb
  sweetness intensity: 1.3 points
[3]; acid added alone at 0.01 ppb
  sweetness intensity: 2.0 points
[3]; acid added alone at 0.1 ppb
  sweetness intensity: 2.4 points
[3]; acid added alone at 1 ppb
  sweetness intensity: 2.9 points
[3]; acid added alone at 10 ppb
  sweetness intensity: 3.3 points
[3]; acid added alone at 100 ppb
  sweetness intensity: 3.9 points
[3]; acid added alone at 1000 ppb
  sweetness intensity: 4.4 points
[3]; acid added alone at 10000 ppb
  sweetness intensity: 4.1 points
[4]; acid added alone at 0.001 ppb
  sweetness intensity: 0.3 points
[4]; acid added alone at 0.01 ppb
  sweetness intensity: 1.9 points
[4]; acid added alone at 0.1 ppb
  sweetness intensity: 3.5 points
[4]; acid added alone at 1 ppb
  sweetness intensity: 4.5 points
[4]; acid added alone at 10 ppb
  sweetness intensity: 5.4 points
[4]; acid added alone at 100 ppb
  sweetness intensity: 6.0 points
[4]; acid added alone at 1000 ppb
  sweetness intensity: 6.2 points
[4]; acid added alone at 10000 ppb
  sweetness intensity: 5.7 points
[4]
  concentration at which a sweetness-enhancing effect was confirmed: ≥ 0.1 ppb

Source: patent publication US20250302080A1, “SWEETNESS AND/OR FLAVOR ENHANCER” (AJINOMOTO CO., INC., priority 2022, published 2025)
